# Source: patent US20250275948A1, “(N-[4-(2,3-DIHYDRO-1H-INDEN-5-YL)-1,3-THIAZOL-2-YL]-2-[4-METHYL-4-(NAPHTHALEN-2-YL)-2,5-DIOXOIMIDAZOLIDIN-1-YL]ACETAMIDE AS STABILIZER OF CLOCK:BMAL1 INTERACTION FOR THE TREATMENT OF CIRCADIAN RHYTHM DISEASES AND DISORDERS” (KOC UNIVERSITESI, priority 2022, published 2025)
# Test system: CLOCK and BMAL1
# Assay: Subcellular fractionation of U2OS Bmal1-dLuc cells
# Format: cell-based, human
# Details: unsynchronized U2OS Bmal1-dLuc cells, 5 μM, 24 hours
# Procedure: Subcellular fractionation was performed to explore if CLK95 effects the subcellular localization of core-clock proteins. U2OS Bmal1-dLuc cells were plated with a density of 40×10^4 cell/well in 6 well plate, a day prior to small molecule treatment. Following, cells were treated with either DMSO (0.25%) or 5 μM CLK95. 24 hours after small molecule treatment, cells were harvested to get fractionated. Cells were harvested with 1 mL ice cold-1×PBS, and pelleted at 5000×g for 7 minutes at 4° C. After discarding supernatants, cells were resuspended with 200 μL Cytosolic Lysis Buffer (CLB) (10 mM HEPES pH 7.9, 10 mM KCl, 0.1 mM EDTA pH 8.0, 0.05% NP-40, 1×PIC) and incubated on ice for 10 minutes. Then, samples were centrifuged at 660×g for 5 minutes (4° C.). While supernatants were transferred to new centrifuge tubes as cytosolic fractions, pellets were washed with 200 μL CLB buffer for 3 times. At the end of each wash, samples were centrifugated at 660×g for 5 minutes at 4° C. Next, cell pellets were resuspended in 100 μL Nuclear Lysis Buffer (NLB) (20 mM HEPES pH 7.9, 0.4M NaCl, 1 mM EDTA, 10% Glycerol, 1×PIC) and subjected to sonication (60% power, 10 seconds, 3 cycles) (BANDELIN SONOPULS HD 2070 homogeniser) for 2 times. This step was followed by centrifugation at 15000×g for 5 minutes with the cytosolic fractions. […]
smiles,measurement,value
CC1(c2ccc3ccccc3c2)NC(=O)N(CC(=O)Nc2nc(-c3ccc4c(c3)CCC4)cs2)C1=O (stereo not shown) [CLK95],nuclear localization of CLOCK and BMAL1,increasing the nuclear localization of CLOCK and BMAL1
